Results as given in patent US11000033B2, “Ketone or oxime compound, and herbicide” (NISSAN CHEMICAL CORPORATION, priority 2014, dated 2021).

Legend:
Type in all cases: in vivo
[1] = system: Echinochloa oryzacola Vasing.; assay: Test Example 1: herbicidal activity, application before weed generation in submerged conditions (symbol A); conditions: application herbicide amount 320 g/ha
Summary of the method: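 Weeds are sown into submerged alluvial soil alongside transplanted 2.5-leaf rice, and the compound, as an emulsion diluted to a set rate, is applied onto the water before emergence. Rating on the 0–5 herbicidal-ratio scale follows 3 weeks of greenhouse growth at 25–30 °C.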

rice = assay: Test Example 4: effect on crop by soil treatment (symbol b); conditions: application herbicide amount 320 g/ha
Summary of the method: (§1)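 Grown at 25° C. to 30° C. in a greenhouse, the crops came from seed sown spot-wise in sterilized diluvial soil under roughly 1.5 cm of covering soil.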

Avena fatua = assay: Test Example 5: herbicidal effect by foliage application, plastic box (symbol I); conditions: 320 g/ha, 3 weeks after application
Summary of the method: (§2)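 Effect is rated 3 weeks after a foliar spray of water-diluted emulsion concentrate at a predetermined herbicide amount. Plants had grown 14 days in a 25° C. to 30° C. greenhouse from seed in sterilized diluvial soil.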

Lolium multiflorum Lam. = assay: Test Example 5: herbicidal effect by foliage application, plastic box (symbol K); conditions: 320 g/ha, 3 weeks after application
Summary of the method: as §2

transplanted rice plant = assay: Test Example 1: effect on crop, application before weed generation in submerged conditions (symbol a); conditions: application herbicide amount 320 g/ha
Summary of the method: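 Alluvial soil pots flooded to 4 cm water, sown with Echinochloa oryzacola, Scirpus juncoides and Monochoria vaginalis, then transplanted with 2.5 leaf stage rice seedlings; pre-emergence application. Greenhouse 25° C. to 30° C.; scored 0–5 by herbicidal ratio 3 weeks after application.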

soybean = assay: Test Example 4: effect on crop by soil treatment (symbol d); conditions: application herbicide amount 320 g/ha
Summary of the method: as §1

wheat = assay: Test Example 4: effect on crop by soil treatment (symbol e); conditions: application herbicide amount 320 g/ha
Summary of the method: as §1

Cyperus difformis = assay: Test Example 3: herbicidal effect by foliage application, Wagner pot (symbol E); conditions: application herbicide amount 320 g/ha
Summary of the method: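 Plants sown in submerged alluvial soil (water depth 0.1–0.5 cm) in a 25–30 °C greenhouse and grown 14 days. An emulsion of the compound diluted in water to a set herbicide amount was sprayed uniformly on foliage. Effect on each plant scored 3 weeks after application.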

corn = assay: Test Example 5: effect on crop by foliage application, plastic box (symbol c); conditions: 320 g/ha, 3 weeks after application
Summary of the method: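 Crop and weed seeds sown in spots in sterilized diluvial soil in plastic boxes and covered with about 1.5 cm soil. Plants raised in a greenhouse at 25° C. to 30° C. for foliar application.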

Scirpus juncoides = assay: Test Example 2: herbicidal activity, application during weed generation in submerged conditions (symbol B); conditions: Table 23; application herbicide amount 320 g/ha; grade 0-5 by criteria of Test Example 1
Summary of the method: (§3)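 Seeds sown in flooded alluvial soil (4 cm water) were grown in a 25-30° C greenhouse. At the one- to two-leaf stage, diluted emulsion of compound was applied to the water surface at a predetermined rate. Effect was scored 3 weeks later.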

[2] = system: directly sowed rice plant; assay: Test Example 3: effect on crop by foliage application, Wagner pot (symbol b); conditions: application herbicide amount 320 g/ha
Summary of the method: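 Plants are raised from seed in flooded paddy conditions: water stands 0.1–0.5 cm over alluvial soil, and the pot is kept in a greenhouse at 25–30 °C. Species sown are barnyardgrass (E. crus-galli var. crus-galli), Leptochloa chinensis, Cyperus difformis and rice.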

Monochoria vaginalis = assay: Test Example 2: herbicidal activity, application during weed generation in submerged conditions (symbol C); conditions: Table 23; application herbicide amount 320 g/ha; grade 0-5 by criteria of Test Example 1
Summary of the method: as §3

Chenopodium album = assay: Test Example 5: herbicidal effect by foliage application, plastic box (symbol O); conditions: 320 g/ha, 3 weeks after application
Summary of the method: as §2

Row | SMILES | Herbicidal effect grade, A: Echinochloa oryzacola Vasing. [1] | b (directly sowed rice plant) effect on crop grade (rice) | I: Avena fatua, herbicidal effect grade (Avena fatua) | K: Lolium multiflorum Lam., herbicidal effect grade (Lolium multiflorum Lam.) | Effect grade on crop, a: transplanted rice plant (transplanted rice plant) | d (soybean) effect on crop grade (soybean) | e (wheat) effect on crop grade (wheat) | herbicidal effect on E, grade 0-5 (Cyperus difformis) | c: corn, effect on crop grade (corn) | Herbicidal effect grade, B: Scirpus juncoides (Scirpus juncoides) | effect on crop b (directly sowed rice plant), grade 0-5 [2] | Herbicidal effect grade, C: Monochoria vaginalis (Monochoria vaginalis) | O: Chenopodium album, herbicidal effect grade (Chenopodium album)
1 | CC(CC1CC(O)=C(c2c(C)cc(C)cc2C)C1=O)=NOC(C)(C)C (centres unmarked) [1-053] | 5 (Herbicidal ratio of 90% or more (almost completely withered)) | 5 (Herbicidal ratio of 90% or more (almost completely withered)) | 2 (Herbicidal ratio of 20% or higher and lower than 40%) | 5 (Herbicidal ratio of 90% or more (almost completely withered)) | 5 (Herbicidal ratio of 90% or more (almost completely withered)) | 0 (Herbicidal ratio of 5% or lower (almost no effect)) | 0 (Herbicidal ratio of 5% or lower (almost no effect)) | 4 (Herbicidal ratio of 70% or higher and lower than 90%) | 3 (Herbicidal ratio of 40% or higher and lower than 70%) | 0 (Herbicidal ratio of 5% or lower (almost no effect)) | 5 (Herbicidal ratio of 90% or more (almost completely withered)) | 0 (Herbicidal ratio of 5% or lower (almost no effect)) | 1 (Herbicidal ratio of 5% or higher and lower than 20%)
2 | CCCCCCCON=C(C)CC1CC(O)=C(c2c(C)cc(C)cc2C)C1=O (centres unmarked) [1-054] | 5 (Herbicidal ratio of 90% or more (almost completely withered)) | 5 (Herbicidal ratio of 90% or more (almost completely withered)) | 3 (Herbicidal ratio of 40% or higher and lower than 70%) | 5 (Herbicidal ratio of 90% or more (almost completely withered)) | 5 (Herbicidal ratio of 90% or more (almost completely withered)) | 0 (Herbicidal ratio of 5% or lower (almost no effect)) | 0 (Herbicidal ratio of 5% or lower (almost no effect)) | 0 (Herbicidal ratio of 5% or lower (almost no effect)) | 0 (Herbicidal ratio of 5% or lower (almost no effect)) | 0 (Herbicidal ratio of 5% or lower (almost no effect)) | 5 (Herbicidal ratio of 90% or more (almost completely withered)) | 0 (Herbicidal ratio of 5% or lower (almost no effect)) | 0 (Herbicidal ratio of 5% or lower (almost no effect))
3 | CC(CC1CC(O)=C(c2c(C)cc(C)cc2C)C1=O)=NOCC[Si](C)(C)C (centres unmarked) [1-055] | 5 (Herbicidal ratio of 90% or more (almost completely withered)) | 5 (Herbicidal ratio of 90% or more (almost completely withered)) | 4 (Herbicidal ratio of 70% or higher and lower than 90%) | 5 (Herbicidal ratio of 90% or more (almost completely withered)) | 5 (Herbicidal ratio of 90% or more (almost completely withered)) | 0 (Herbicidal ratio of 5% or lower (almost no effect)) | 0 (Herbicidal ratio of 5% or lower (almost no effect)) | 4 (Herbicidal ratio of 70% or higher and lower than 90%) | 3 (Herbicidal ratio of 40% or higher and lower than 70%) | 0 (Herbicidal ratio of 5% or lower (almost no effect)) | 5 (Herbicidal ratio of 90% or more (almost completely withered)) | 0 (Herbicidal ratio of 5% or lower (almost no effect)) | 1 (Herbicidal ratio of 5% or higher and lower than 20%)
4 | CC(CC1CC(O)=C(c2c(C)cc(C)cc2C)C1=O)=NOCC=CCl (centres unmarked) [1-056] | 5 (Herbicidal ratio of 90% or more (almost completely withered)) | 5 (Herbicidal ratio of 90% or more (almost completely withered)) | 5 (Herbicidal ratio of 90% or more (almost completely withered)) | 5 (Herbicidal ratio of 90% or more (almost completely withered)) | 5 (Herbicidal ratio of 90% or more (almost completely withered)) | 0 (Herbicidal ratio of 5% or lower (almost no effect)) | 5 (Herbicidal ratio of 90% or more (almost completely withered)) | 5 (Herbicidal ratio of 90% or more (almost completely withered)) | 4 (Herbicidal ratio of 70% or higher and lower than 90%) | 5 (Herbicidal ratio of 90% or more (almost completely withered)) | 5 (Herbicidal ratio of 90% or more (almost completely withered)) | 4 (Herbicidal ratio of 70% or higher and lower than 90%) | 1 (Herbicidal ratio of 5% or higher and lower than 20%)
5 | CC(CC1CC(O)=C(c2c(C)cc(C)cc2C)C1=O)=NOc1ccccc1 (centres unmarked) [1-057] | 5 (Herbicidal ratio of 90% or more (almost completely withered)) | 5 (Herbicidal ratio of 90% or more (almost completely withered)) | 2 (Herbicidal ratio of 20% or higher and lower than 40%) | 5 (Herbicidal ratio of 90% or more (almost completely withered)) | 4 (Herbicidal ratio of 70% or higher and lower than 90%) | 0 (Herbicidal ratio of 5% or lower (almost no effect)) | 0 (Herbicidal ratio of 5% or lower (almost no effect)) | 3 (Herbicidal ratio of 40% or higher and lower than 70%) | 0 (Herbicidal ratio of 5% or lower (almost no effect)) | 0 (Herbicidal ratio of 5% or lower (almost no effect)) | 5 (Herbicidal ratio of 90% or more (almost completely withered)) | 0 (Herbicidal ratio of 5% or lower (almost no effect)) | 0 (Herbicidal ratio of 5% or lower (almost no effect))
